Test results: patent US20240240224A1, “FLUORESCENT D-TYPE AMINO ACID METABOLISM MARKER-BASED METHOD FOR DETECTING ANTIBACTERIAL DRUG SENSITIVITY TEST” (priority 2020, published 2024)
Converted amounts (≈) assume the structure as drawn.

How the values were obtained:
[1] = tested on: E.coli 1113; test: FDAA metabolic labeling susceptibility test (Cy5-DAA probe, flow cytometry); type: cell-based, Escherichia coli; conditions: Escherichia coli, 1113, 2 h, read-out: MIC, FDAA
Method: (§1) The specific experimental steps are as follows: • 1. Take the colony to be tested that has been cultured overnight on the plate and fully mix it in normal saline to make a uniform bacterial solution. Dilute it into CAMHB medium to make a bacterial solution with OD600=0.05. • 2. Add 45 μl antibiotic solutions to be tested of different concentrations to 96-well plates (see Table 3 for antibiotic concentration gradient settings). • 3. Add 50 μl of bacterial solution prepared in Step 1 to the 96-well plate and mix well. • 4.5 μl of 10 mM Cy5-DAA probe was added to each well (final concentration was 0.15 mM, and its structure was shown in FIG. 1). After mixing, the probe was incubated for 2 hours in the dark. • 5. After dilution with 200 μl PBS solution, the fluorescence intensity of each sample was detected by flow cytometry. The flow detection results are shown in the attached FIG. 4-5, showing the curve of antibiotic concentration gradient and fluorescence intensity, and the MIC (minimum inhibitory concentration) is obtained by referring to this curve.

[2] = tested on: E.coli 1146; test: as above; type: cell-based, Escherichia coli; conditions: Escherichia coli, 1146, 2 h, read-out: MIC, FDAA
Method: as §1

[3] = tested on: E.coli 1113; test: Vitek 2 drug sensitivity test; type: cell-based, Escherichia coli; for Sensibility: key: S: Drug sensitive; R: Drug resistance
[4] = tested on: E.coli 1146; test: Vitek 2 drug sensitivity test; type: cell-based, Escherichia coli; for Sensibility: key: S: Drug sensitive; R: Drug resistance
[5] = tested on: E. coli Ec11; test: BMD susceptibility test; type: cell-based, Escherichia coli; conditions: unit assumed
[6] = tested on: E. coli Ec11; test: FaAST (FDAA metabolic labeling); type: cell-based, Escherichia coli; conditions: unit assumed
Method: as §1
(§2) Antibiotic resistant strains are shown in bold in the table below.

[7] = tested on: Ec ATCC 25922; test: FaAST (FDAA metabolic labeling); type: cell-based, Escherichia coli; conditions: unit assumed
Method: as §1, §2

[8] = tested on: E. coli Ec13; test: BMD susceptibility test; type: cell-based, Escherichia coli; conditions: unit assumed
[9] = tested on: E. coli Ec13; test: FaAST (FDAA metabolic labeling); type: cell-based, Escherichia coli; conditions: unit assumed
Method: as §1, with “cytometry.” for “cytometry. The flow detection results are shown in the attached FIG. 4-5, showing the curve of antibiotic concentration gradient and fluorescence intensity, and the MIC (minimum inhibitory concentration) is obtained by referring to this curve.”

[10] = tested on: Ec ATCC 25922; test: BMD susceptibility test; type: cell-based, Escherichia coli; conditions: unit assumed
[11] = tested on: A. baumannii Ab16; test: BMD susceptibility test; type: cell-based, Acinetobacter baumannii; conditions: unit assumed
[12] = tested on: A. baumannii Ab16; test: FaAST (FDAA metabolic labeling); type: cell-based, Acinetobacter baumannii; conditions: unit assumed
Method: as §1, with “cytometry.” for “cytometry. The flow detection results are shown in the attached FIG. 4-5, showing the curve of antibiotic concentration gradient and fluorescence intensity, and the MIC (minimum inhibitory concentration) is obtained by referring to this curve.”

[13] = tested on: A. baumannii Ab19; test: BMD susceptibility test; type: cell-based, Acinetobacter baumannii; conditions: unit assumed
[14] = tested on: A. baumannii Ab19; test: FaAST (FDAA metabolic labeling); type: cell-based, Acinetobacter baumannii; conditions: unit assumed
Method: as §1, §2

[15] = tested on: K. pneumoniae Kp6; test: BMD susceptibility test; type: cell-based, Klebsiella pneumoniae; conditions: unit assumed
[16] = tested on: K. pneumoniae Kp9; test: BMD susceptibility test; type: cell-based, Klebsiella pneumoniae; conditions: unit assumed
[17] = tested on: K. pneumoniae Kp6; test: FaAST (FDAA metabolic labeling); type: cell-based, Klebsiella pneumoniae; conditions: unit assumed
Method: as §1, with “cytometry.” for “cytometry. The flow detection results are shown in the attached FIG. 4-5, showing the curve of antibiotic concentration gradient and fluorescence intensity, and the MIC (minimum inhibitory concentration) is obtained by referring to this curve.”

[18] = tested on: K. pneumoniae Kp9; test: FaAST (FDAA metabolic labeling); type: cell-based, Klebsiella pneumoniae; conditions: unit assumed
Method: as §1, with “cytometry.” for “cytometry. The flow detection results are shown in the attached FIG. 4-5, showing the curve of antibiotic concentration gradient and fluorescence intensity, and the MIC (minimum inhibitory concentration) is obtained by referring to this curve.”

[19] = tested on: bacteria contained in alveolar lavage fluid; test: FDAA metabolic labeling susceptibility test of alveolar lavage fluid (Cy5-DAA probe); type: cell-based; conditions: alveolar lavage fluid of patients with hospital acquired pneumonia, 2 hours
Method: (§3) With reference to the flow chart of the rapid detection method of antimicrobial susceptibility test based on FDAA metabolic markers shown in FIG. 3, FDAA is used for the detection of antimicrobial susceptibility test of alveolar lavage fluid. The specific experimental steps are as follows: • 1. Mix bronchoalveolar lavage fluid (BALF, 10 ml) of patients with hospital acquired pneumonia with cation regulated broth medium (CAMHB, 10 ml) of twice the concentration to prepare the bacterial fluid to be tested. • 2. Add 45 μl antibiotic solutions of different concentrations to the 96-well plate separately (see Table 1 for antibiotic concentration gradient settings). • 3. Add 50 μl of the bacterial solution prepared in step 1 to the 96-well plate and mix well. • 4. Add 5 μl of 10 mM Cy5-DAA probe (final concentration 0.15 mM, see FIG. 1 for its structure) into each well, mix well, and then cultivate in dark for 2 hours. • 5. Add 200 μl PBS solution for dilution, and then use flow cytometry to detect the fluorescence intensity of each sample.

[20] = tested on: bacteria contained in alveolar lavage fluid; test: Vitek 2 drug sensitivity test of alveolar lavage fluid; type: cell-based; for Sensibility: key: S: Drug sensitive; R: Drug resistance
[21] = tested on: alveolar lavage fluid sample 0130, A. baumannii; test: BMD susceptibility test of patient alveolar lavage fluid; type: cell-based, Acinetobacter baumannii; conditions: unit assumed
Description: (§4) The results of antimicrobial susceptibility test of alveolar lavage fluid of seven patients using FDAA and BMD methods are shown in the following table. The drug-resistant bacteria are shown in bold.

[22] = tested on: alveolar lavage fluid sample 0206, A. baumannii; test: as above; type: cell-based, Acinetobacter baumannii; conditions: unit assumed
Description: as §4

[23] = tested on: alveolar lavage fluid sample 0219, A. baumannii; test: as above; type: cell-based, Acinetobacter baumannii; conditions: unit assumed
Description: as §4

[24] = tested on: alveolar lavage fluid sample 0130, A. baumannii; test: FaAST (FDAA) susceptibility test of patient alveolar lavage fluid; type: cell-based, Acinetobacter baumannii; conditions: unit assumed
Method: as §3, §4

[25] = tested on: alveolar lavage fluid sample 0204, A. baumannii; test: as above; type: cell-based, Acinetobacter baumannii; conditions: unit assumed
Method: as §3, §4

[26] = tested on: alveolar lavage fluid sample 0206, A. baumannii; test: as above; type: cell-based, Acinetobacter baumannii; conditions: unit assumed
Method: as §3, §4

[27] = tested on: alveolar lavage fluid sample 0219, A. baumannii; test: as above; type: cell-based, Acinetobacter baumannii; conditions: unit assumed
Method: as §3, §4

[28] = tested on: alveolar lavage fluid sample 0204, A. baumannii; test: BMD susceptibility test of patient alveolar lavage fluid; type: cell-based, Acinetobacter baumannii; conditions: unit assumed
[29] = tested on: alveolar lavage fluid sample 0203, K. pneumoniae; test: as above; type: cell-based, Klebsiella pneumoniae; conditions: unit assumed
Description: as §4

[30] = tested on: alveolar lavage fluid sample 0226, K. pneumoniae; test: as above; type: cell-based, Klebsiella pneumoniae; conditions: unit assumed
Description: as §4

[31] = tested on: alveolar lavage fluid sample 0203, K. pneumoniae; test: FaAST (FDAA) susceptibility test of patient alveolar lavage fluid; type: cell-based, Klebsiella pneumoniae; conditions: unit assumed
Method: as §3, §4

[32] = tested on: alveolar lavage fluid sample 0226, K. pneumoniae; test: as above; type: cell-based, Klebsiella pneumoniae; conditions: unit assumed
Method: as §3, §4

[33] = tested on: Ec ATCC 25922; conditions: cited from earlier work

Compound `CN(C)c1cc(NC(=O)CNC(C)(C)C)c(O)c2c1C[C@H]1C[C@H]3[C@H](N(C)C)C(O)=C(C(N)=O)C(=O)[C@@]3(O)C(O)=C1C2=O` [Tigecycline, tigecycline] has an MIC [1] of 1 µg/mL (≈ 1.71 µM), an MIC [2] of 0.25 µg/mL (≈ 0.427 µM) and an MIC, Vitek 2 [3] of under 1 µg/mL. The Sensibility [3] was “S”, the Sensibility [4] was “S” and the MIC ([4]; Escherichia coli) was at most 0.25 µg/mL. It also gave a BMD (MIC) [5] of at most 0.25 µg/mL, a FaAST (MIC) [6] of at most 0.25 µg/mL and a FaAST (MIC) [7] of at most 0.25 µg/mL. It also gave a BMD (MIC) [8] of at most 0.25 µg/mL, a FaAST (MIC) [9] of at most 0.25 µg/mL and a BMD (MIC) [10] of at most 0.25 µg/mL. For the same compound, the BMD (MIC) [11] was at most 0.25 µg/mL, the FaAST (MIC) [12] was at most 0.25 µg/mL and the BMD (MIC) [13] was at most 0.25 µg/mL. For the same compound, the FaAST (MIC) [14] was 0.5 µg/mL, the BMD (MIC) [15] was at most 0.25 µg/mL and the BMD (MIC) [16] was 0.5 µg/mL. The FaAST (MIC) [17] was at most 0.25 µg/mL, the FaAST (MIC) [18] was 0.25 µg/mL and the “MIC, FDAA” value [19] was 4 µg/mL (≈ 6.83 µM). The MIC [20] was 2 µg/mL (≈ 3.41 µM), the Sensibility [20] was “S” and the BMD (MIC) [21] was 2 µg/mL. The BMD (MIC) [22] was 1 µg/mL, the BMD (MIC) [23] was 1 µg/mL and the FaAST (MIC) [24] was 2 µg/mL. It also gave a FaAST (MIC) [25] of 0.5 µg/mL, a FaAST (MIC) [26] of 8 µg/mL and a FaAST (MIC) [27] of 64 µg/mL. For the same compound, the BMD (MIC) [28] was 0.5 µg/mL, the BMD (MIC) [29] was 1 µg/mL and the BMD (MIC) [30] was 1 µg/mL. For the same compound, the FaAST (MIC) [31] was 0.125 µg/mL, the FaAST (MIC) [32] was 0.5 µg/mL and the “CLSI QC range” value [33] was 0.03-0.25.
Work on Polymyxin B yielded a BMD (MIC) [5] of 2 µg/mL, a FaAST (MIC) [6] of 2 µg/mL and a FaAST (MIC) [7] of 2 µg/mL. The BMD (MIC) [8] was 8 µg/mL, the FaAST (MIC) [9] was 8 µg/mL and the BMD (MIC) [10] was 2 µg/mL. The BMD (MIC) [15] was 0.5 µg/mL, the BMD (MIC) [16] was 16 µg/mL and the FaAST (MIC) [17] was 1 µg/mL. For the same compound, the FaAST (MIC) [18] was 32 µg/mL and the “CLSI QC range” value [33] was 0.25-2.
